Test results as given in patent publication US20220218725A1, “METHODS AND MATERIALS FOR TREATING CANCER” (Mayo Foundation for Medical Education and Research, priority 2019, published 2022).

Tests used:
JeKo-1 cells [1] = assay: Cell viability, Annexin V/PI assay (also IC50 and combination index); type: cell-based; details: for % viability normalized for respective controls: JeKo-1 (MCL), 48 hours, KPT-330 0.1-1.0 μM, CS 1-3 mM, single agent or combination
Procedure: (§1) To assess apoptosis and cellular proliferation, all cell lines were treated with CRM 1 inhibitors (concentration ranging from 0.05-2 μM) and salicylates at concentrations ranging from (0.001-10 mM) for 48 hours before analysis was performed. DMSO was used to substitute the drug in controls.
After 48 hours incubation, cells were washed with Annexin buffer solution and stained with both propidium iodide (PI) and FITC-Annexin V (Life Technologies), and assayed on a BD Accuri flow cytometer (BD Biosciences). Apoptosis results were analyzed with BD CellQuest software. For cell cycle analysis, Jeko-1 cell line was intubated with CRM 1 inhibitors (concentrations ranging from […]) and salicylates (concentration at 3 mM) and Ly-1 cell line was intubated with CRM 1 inhibitors (concentrations ranging from 0.1-2.0 μM) and salicylates (concentration at 0.5-5 mM) for 24 and 48 hours and then fixed with 95% cold ethanol and kept at 4 C° for 24 h and subsequently underwent cell cycle analysis after PI staining and analysis was performed using BD FACS caliber flow cytometer (BD Biosciences) and FlowJo software (Tree Star).
(§2) Cell lines were purchased from the cell line repositories ATCC (Manassas, Va.) or DSMZ (Braunschweig, Germany). These included MCL cell lines: JeKo-1, Mino; TCL cell lines: Karpas-299, SR-786; DLBCL cell lines: OCI-Ly1 (LY-1), OCI-Ly3 (LY-3), OCI-Ly19 (LY-19), SU-DHL-6 (DHL-6); MM cell lines: RPMI, U266, OPM2, Xgl, KMS2; ALL cell lines: CRL-1783; non-small cell lung cancer: NCI-H460, A549, HCC827; small cell lung cancer: H1048; sarcoma: Fuji, SW872. Cell lines were cultured according to instruction.
(§3) KPT-330 purchased from Selleckchem (cat no: S7252) was dissolved in DMSO while CS (Santa Cruz, Calif.S 2016-36-6), sodium salicylate (Sigma-Aldrich, cat no: S3007), acetyl salicylate (Sigma-Aldrich, cat no: CAS 50-78-2) was diluted in PBS. Ketorolac (Sigma-Aldrich, cat no: 1356665), Bortezomib (Selleckchem, cat no: S1013), gemcitabine (Sigma-Aldrich, cat no: G6423), Leptomycin-B (Sigma-Aldrich, cat no: L2913-2X) and KPT-185 (Selleckchem, cat no: S7125) were dissolved in DMSO. The concentration range of KPT-330 was 0.05-1.0 μM while CS was 1-3 mM were used for ex vivo treatment and incubation time ranged from 24 hours to 72 hours. For the PARP inhibitor assay, olaparib 10 μM (SelleckChem, cat no: AZD2281 Ku-0059436) was used.
(§4) The viability assessment for cell lines and primary patients samples were conducted with the Annexin V/PI method.
(§5) Jeko-1 and OCI-Ly1 cell lines were used to assess the IC50. Keeping CS at 3 mM, KPT-330 was titrated. Relative IC50 was calculated as described elsewhere (see, e.g., Sebaugh et al., Pharmaceutical statistics 10:128-134 (2011)). The combination index was calculated as described elsewhere (see, e.g., Chou et al., Cancer Res 70:440-446 (2010)).

FuJi cells = assay: Cell viability, Annexin V/PI assay; type: cell-based; details: FuJi (Sarcoma); 48 hours; KPT-330 0.1-1.0 μM, CS 1-3 mM, single agent or combination
Procedure: as §2, §3, §4

HCC827 cells = assay: Cell viability, Annexin V/PI assay; type: cell-based; details: HCC827 (Non-small cell lung cancer); 48 hours; KPT-330 0.1-1.0 μM, CS 1-3 mM, single agent or combination
Procedure: as §2, §3, §4

SW872 cells = assay: Cell viability, Annexin V/PI assay; type: cell-based; details: SW872 (Sarcoma); 48 hours; KPT-330 0.1-1.0 μM, CS 1-3 mM, single agent or combination
Procedure: as §2, §3, §4

Xg1 cells = assay: Cell viability, Annexin V/PI assay; type: cell-based; details: Xg1 (MM); 48 hours; KPT-330 0.1-1.0 μM, CS 1-3 mM, single agent or combination
Procedure: as §2, §3, §4

OCI-Ly1 cells = assay: Cell viability, Annexin V/PI assay (also IC50 and combination index)
Procedure: as §1
After 48 hours incubation, cells were washed with Annexin buffer solution and stained with both propidium iodide (PI) and FITC-Annexin V (Life Technologies), and assayed on a BD Accuri flow cytometer (BD Biosciences). Apoptosis results were analyzed with BD CellQuest software. […]
as §5, with “Keeping CS at 3 mM, KPT-330 was titrated.” left out

OCI-Ly3 cells = assay: Cell viability, Annexin V/PI assay; type: cell-based; details: OCI-Ly3 (DLBCL); 48 hours; KPT-330 0.1-1.0 μM, CS 1-3 mM, single agent or combination
Procedure: DMSO was used to substitute the drug in controls.
Apoptosis results were analyzed with BD CellQuest software.
Cell lines were cultured according to instruction.

L3.6 cells = assay: Cell viability, Annexin V/PI assay; type: cell-based; details: L3.6 (Pancreatic cancer); 48 hours; KPT-330 0.1-1.0 μM, CS 1-3 mM, single agent or combination
Hs 578T cells = assay: Cell viability, Annexin V/PI assay; type: cell-based; details: Hs 578T (Breast cancer); 48 hours; KPT-330 0.1-1.0 μM, CS 1-3 mM, single agent or combination
BT-474 cells = assay: Cell viability, Annexin V/PI assay; type: cell-based; details: BT-474 (Breast cancer); 48 hours; KPT-330 0.1-1.0 μM, CS 1-3 mM, single agent or combination
BT-20 cells = assay: Cell viability, Annexin V/PI assay; type: cell-based; details: BT-20 (Breast cancer); 48 hours; KPT-330 0.1-1.0 μM, CS 1-3 mM, single agent or combination
MCF7 cells = assay: Cell viability, Annexin V/PI assay; type: cell-based; details: MCF7 (Breast cancer); 48 hours; KPT-330 0.1-1.0 μM, CS 1-3 mM, single agent or combination
[2] = system: CMML patient-derived bone marrow sample; assay: Hematopoietic progenitor colony forming assay; type: cell-based, human; details: assessed by counting colony forming units in methyl cellulose media, KPT-330 0.05-0.5 μM, CS 1-3 mM
Excerpt: CMML patient-derived bone marrow samples were first treated with ammonium chloride to deplete red blood cells, washed in RPMI, then plated at a final concentration of 5×10^4-2×10^5 cells/mL in addition to drug(s). This solution was immediately inoculated into methylcellulose (StemCell) formulated with recombinant cytokines to support the optimal growth of erythroid progenitor cells, granulocyte-macrophage progenitor cells, and multipotent granulocyte, erythroid, macrophage and megakaryocyte progenitor cells. Plates were incubated with respective treatment conditions at 37° C. and colonies were enumerated on day 10-14.

JeKo-1 cells [3] = assay: Cell cycle analysis (PI staining, flow cytometry); type: cell-based; details: unsynchronized JeKo-1 cells

Question: With C[N+](C)(C)CCO.O=C([O-])c1ccccc1O [CS, choline salicylate] as the compound, how does the “% viability normalized for respective controls” value (shortened to “% viability normalized”) (JeKo-1 cells [1]) read?
Answer: 93%

Question: And the “% viability normalized” value (FuJi cells)?
Answer: 85%

Question: What about the “% viability normalized” value (HCC827 cells) of the same compound?
Answer: 90%

Question: And the “% viability normalized” value (SW872 cells)?
Answer: 88%

Question: And the “% viability normalized” value (Xg1 cells)?
Answer: 95%

Question: And the “% viability normalized” value (OCI-Ly1 cells; OCI-Ly1 (DLBCL), 48 hours, KPT-330 0.1-1.0 μM, CS 1-3 mM, single agent or combination)?
Answer: 101%

Question: And the “% viability normalized” value (OCI-Ly3 cells)?
Answer: 84%

Question: And the “% viability normalized” value (L3.6 cells)?
Answer: 72%

Question: And the “% viability normalized” value (Hs 578T cells)?
Answer: 87%

Question: And the “% viability normalized” value (BT-474 cells)?
Answer: 110%

Question: What about the “% viability normalized” value (BT-20 cells) of the same compound?
Answer: 89%

Question: What about the “% viability normalized” value (MCF7 cells) of the same compound?
Answer: 87%

Question: What about the “% viability normalized” value [2] of the same compound?
Answer: 53%

Question: What about the “fraction of cells in the G2/M phase” value (JeKo-1 cells [3]) of the same compound?
Answer: 11%

Question: Which IC50 (JeKo-1 cells [1]; Homo sapiens, JeKo-1 (MCL cells), 72 hours, selinexor titrated alone or with CS kept at 3 mM) does the source give for O=C(/C=C\n1cnc(-c2cc(C(F)(F)F)cc(C(F)(F)F)c2)n1)NNc1cnccn1 [KPT-330, (Z)-3-[3-[3,5-bis (trifluoromethyl)phenyl]-1,2,4-triazol-1-yl]-N′-pyrazin-2-ylprop-2-enehydrazide] here?
Answer: 1.3 µM

Question: What about the “% viability normalized” value (JeKo-1 cells [1]) of the same compound?
Answer: 95%

Question: And the “% viability normalized” value (FuJi cells)?
Answer: 93%

Question: What about the “% viability normalized” value (HCC827 cells) of the same compound?
Answer: 78%

Question: What about the “% viability normalized” value (SW872 cells) of the same compound?
Answer: 82%

Question: What about the “% viability normalized” value (Xg1 cells) of the same compound?
Answer: 76%

Question: And the IC50 (OCI-Ly1 cells; Homo sapiens, OCI-Ly1, 72 h)?
Answer: 1.8 µM

Question: And the “% viability normalized” value (OCI-Ly3 cells)?
Answer: 85%

Question: What about the “% viability normalized” value (L3.6 cells) of the same compound?
Answer: 61%

Question: What about the “% viability normalized” value (Hs 578T cells) of the same compound?
Answer: 73%

Question: What about the “% viability normalized” value (BT-474 cells) of the same compound?
Answer: 73%

Question: And the “% viability normalized” value (BT-20 cells)?
Answer: 58%

Question: What about the “% viability normalized” value (MCF7 cells) of the same compound?
Answer: 98%

Question: What about the “% viability normalized” value [2] of the same compound?
Answer: 56%

Question: And the “fraction of cells in the G2/M phase” value (JeKo-1 cells [3])?
Answer: 15%
